According to the NIST ThermoML archive (doi:10.1021/acs.jced.6b00192):

Settings: Liquid, Vibrating tube method

CCCCOCCO [2-butoxyethan-1-ol]
mass density [kg/m3]
Settings	283.15 K	293.15 K	303.15 K	313.15 K	323.15 K	333.15 K	343.15 K	353.15 K	363.15 K
100 kPa	907.9	900.5	891.8	883.5	874	865.6	856.5	847.5	838.2
1000 kPa	908.3	900.6	892.1	884	875	866.1	857.4	848.4	839.4
3000 kPa	909.9	902.2	893.9	885.6	876.5	868	859.3	850.5	841.4
5000 kPa	911	903.2	895.4	887.1	878.1	869.5	861.1	852.2	843.4
10000 kPa	914.2	906.8	898.9	890.7	881.9	873.5	865.1	856.7	847.9
15000 kPa	917.1	910	902	894.1	885.5	877.3	869.1	860.9	852.6
20000 kPa	920	912.9	905.5	897.3	889.1	880.9	873.2	864.8	856.4
25000 kPa	922.8	915.9	908.7	900.7	892.1	884.4	876.5	868.7	860.4
30000 kPa	925.6	918.8	911.8	903.6	895.4	887.6	880.1	872.3	864.4
35000 kPa	928.4	921.4	914.5	906.7	898.5	890.8	883.5	875.9	868.1
40000 kPa	930.9	924	916.7	909.4	901.6	894	886.7	879.2	871.8
50000 kPa	935.7	929.5	921.8	915.1	907.3	900.1	893	885.6	878.4
60000 kPa	940.5	933.9	927.1	920.1	912.9	905.7	898.6	891.8	884.8

CCCCOCCOCCOCCCC [5,8,11-trioxapentadecane]
mass density [kg/m3]
Settings	283.15 K	293.15 K	303.15 K	313.15 K	323.15 K	333.15 K	343.15 K	353.15 K	363.15 K
100 kPa	891.3	882.9	874.5	866.1	857.2	849.1	840.4	832.4	823.4
1000 kPa	891.8	883.1	875.1	866.41	858.2	850	841.7	833	824.8
3000 kPa	893.2	884.8	876.6	868.1	859.8	851.6	843.5	835.1	827.1
5000 kPa	894.3	885.9	878.2	869.8	861.5	853.3	845.5	836.7	828.7
10000 kPa	897.7	889.6	881.8	873.5	865.4	857.5	849.8	841.4	833.5
15000 kPa	900.9	892.9	885.2	877.2	869.2	861.4	853.7	846	838.4
20000 kPa	904.3	896.1	888.42	880.7	873.1	865.4	857.9	850.3	842.8
25000 kPa	906.9	899.3	891.8	884.1	876.5	869	861.6	854	846.8
30000 kPa	909.9	902.3	894.9	887.1	879.8	872.6	865.3	857.9	850.9
35000 kPa	912.8	905.1	897.9	890.5	883.1	875.9	868.9	861.6	854.9
40000 kPa	915.3	907.9	900.8	893.3	886.3	879.5	872.3	865.1	858.5
50000 kPa	920.5	913.6	906.4	899.4	892.4	885.5	878.9	871.5	865.6
60000 kPa	925.4	918.2	911.8	904.9	898.8	891.6	884.7	878.2	872

CCCCOCCOCCO [3,6-dioxa-1-decanol]
mass density [kg/m3]
Settings	283.15 K	293.15 K	303.15 K	313.15 K	323.15 K	333.15 K	343.15 K	353.15 K	363.15 K
100 kPa	960.4	952.4	943.8	935.5	927	917.8	909.1	901.1	892.6
1000 kPa	961.3	952.9	944.2	935.9	927.3	918.7	910.5	902.1	893.2
3000 kPa	962.6	954.3	946	937.2	928.8	920.7	912.35	903.9	894.9
5000 kPa	963.4	955.2	947	938.8	930.3	922.2	913.6	905.3	896.7
10000 kPa	966.5	958.4	950.3	942	933.8	925.7	917.6	909.3	900.4
15000 kPa	969.4	961.2	953	945.2	937.2	929.2	921.3	913.1	904.8
20000 kPa	971.9	964	956	948.4	940.4	932.5	924.7	916.8	908.5
25000 kPa	974.5	966.9	959.1	951.2	943.5	935.5	928.1	920.3	912.1
30000 kPa	977.1	969.6	962	953.8	946.4	939	931.3	923.7	915.7
35000 kPa	979.1	972	964.7	956.9	949.5	942	934.4	927.1	919.2
40000 kPa	981.4	974.4	967.1	959.7	952.5	945.2	937.3	930.3	922.7
50000 kPa	986.9	979.7	972.2	965	958.2	950.6	943.2	936.3	929.1
60000 kPa	990.4	983.9	977.1	969.7	963.4	956	948.8	942.2	935.2
